Laboratory results published in publication PMC12133982, “Predominant T-cell epitopes of SARS-CoV-2 restricted by multiple prevalent HLA-B and HLA-C allotypes in Northeast Asia” (Frontiers in Immunology, 2025).
pIC50: −log10 of the molar value. Peptide text beside a SMILES is read from it.

Columns and labels:
HLA-C0702 = HLA-C0702 (Homo sapiens, UniProt P10321); test: Competitive peptide binding assay, CIR-C0702
HLA-C0303 = HLA-C0303 (Homo sapiens, UniProt P10321, A176E/A330V/A97T/C25G/C350S/D114A/D33Y/E197K/G115R/L119I/L127V/L171W/L218V/M285V/M309V/M331V/P208H/Q277E/Q291P/R243W/R45H/S123Y/S140Y/S297R/S48A/T118I/T187L/T329A/T363A/V319A); test: Competitive peptide binding assay, CIR-C0303; conditions: HMy2.CIR-C0303 cells, reference Cy5-[…], class from inhibition at 5 and 15 μM, flow cytometry MFI; read-out: Binding affinity with HLA-C0303
Procedure: (§1) Then, competitive peptide binding assays were performed.

HLA-C1502 = HLA-C1502 (Homo sapiens, UniProt P10321, A176E/A330V/A97T/C350S/D114A/D33Y/K90N/L119I/L171W/L218V/M285V/M309V/M331V/N104K/P208H/Q277E/Q291P/R45H/S101N/S123Y/S140L/S297R/S48A/T118I/T329A/T363A/V319A/V328M/Y137H); test: Competitive peptide binding assay, CIR-C1502; conditions: HMy2.CIR-C1502 cells, reference Cy5-[…], class from inhibition at 5 and 15 μM, flow cytometry MFI; read-out: Binding affinity with HLA-C1502
Procedure: as §1

HLA-C0102 = HLA-C0102 (Homo sapiens, UniProt P10321, A176E/A330V/A35S/A97T/C350S/D114A/D33F/L171W/L180R/L218V/M285V/M309V/M331V/P208H/Q277E/Q291P/R121W/R243W/R30K/S123C/S140Y/S297R/T329A/T363A/V272M/V319A); test: Competitive peptide binding assay, CIR-C0102; conditions: HMy2.CIR-C0102 cells, reference Cy5-[…], class from inhibition at 5 and 15 μM, flow cytometry MFI; read-out: Binding affinity with HLA-C0102
Procedure: as §1

HLA-C0302 = HLA-C0302 (Homo sapiens, UniProt P10321, A176E/A330V/A97T/C25G/C350S/D114A/D33Y/E197K/L127V/L171W/L218V/M285V/M309V/M331V/P208H/Q277E/Q291P/R243W/R45H/S123Y/S297R/S48A/T118I/T187L/T329A/T363A/V319A); test: Competitive peptide binding assay, CIR-C0302; conditions: HMy2.CIR-C0302 cells, reference Cy5-[…], class from inhibition at 5 and 15 μM, flow cytometry MFI; read-out: Binding affinity with HLA-C0302
Procedure: as §1

HLA-C0801 = HLA-C0801 (Homo sapiens, UniProt P10321, A176T/A330V/A97T/C350S/D114A/D138N/D33Y/E201K/E299G/L171W/L218V/M285V/M309V/M331V/P208H/Q277E/Q291P/R59Q/S123Y/S140F/S297R/S48A/T329A/T363A/V319A/V328M); test: Competitive peptide binding assay, CIR-C0801; conditions: HMy2.CIR-C0801 cells, reference Cy5-[…], class from inhibition at 5 and 15 μM, flow cytometry MFI; read-out: Binding affinity with HLA-C0801
Procedure: as §1

HLA-C1402 = HLA-C1402 (Homo sapiens, UniProt P10321, A176E/A330V/A35S/A97T/C350S/D114A/D33S/L171W/L180R/L218V/M285V/M309V/M331V/P208H/Q277E/Q291P/R121W/R243W/S123F/S297R/S48A/T329A/T363A/V319A); test: Competitive peptide binding assay, CIR-C1402; conditions: HMy2.CIR-C1402 cells, reference Cy5-[…], class from inhibition at 5 and 15 μM, flow cytometry MFI; read-out: Binding affinity with HLA-C1402
Procedure: as §1

HLA-C0304 = HLA-C0304 (Homo sapiens, UniProt P10321, A176E/A330V/A97T/C25G/C350S/D114A/D33Y/E197K/L119I/L127V/L171W/L218V/M285V/M309V/M331V/P208H/Q277E/Q291P/R243W/R45H/S123Y/S140Y/S297R/S48A/T118I/T187L/T329A/T363A/V319A); test: Competitive peptide binding assay, CIR-C0304; conditions: HMy2.CIR-C0304 cells, reference Cy5-[…], class from inhibition at 5 and 15 μM, flow cytometry MFI; read-out: Binding affinity with HLA-C0304
Procedure: as §1

HLA-C1202 = HLA-C1202 (Homo sapiens, UniProt P10321, A176E/A330V/C350S/D114A/D33Y/L171W/L180W/L218V/M285V/M309V/M331V/P208H/Q277E/Q291P/S123Y/S297R/S48A/T329A/T363A/V319A/V328M); test: Competitive peptide binding assay, CIR-C1202; conditions: HMy2.CIR-C1202 cells, reference Cy5-[…], class from inhibition at 5 and 15 μM, flow cytometry MFI; read-out: Binding affinity with HLA-C1202
Procedure: as §1

HLA-C0701 = HLA-C0701 (Homo sapiens, UniProt P10321, K90N/S123Y); test: Competitive peptide binding assay, CIR-C0701; conditions: HMy2.CIR-C0701 cells, reference Cy5-[…], class from inhibition at 5 and 15 μM, flow cytometry MFI; read-out: Binding affinity with HLA-C 0701
Procedure: as §1

HLA-C0602 = HLA-C0602 (Homo sapiens, UniProt P10321, A176E/A330V/C350S/L171W/L180W/L218V/M285V/M309V/M331V/N104K/P208H/Q277E/Q291P/R121W/S101N/S123Y/S297R/T329A/T363A/V319A/V328M); test: Competitive peptide binding assay, CIR-C0602
HLA-B4601 = HLA-B4601 (Homo sapiens, UniProt P01889, A329T/A93R/C349S/D201E/E100V/E187L/E204Q/E69M/E70A/I90K/K202T/N87E/R155S/R180W/S121R/S35A/S48A/V306I/V36M/Y140S); test: Competitive peptide binding assay, CIR-B4601; conditions: HMy2.CIR-B4601 cells, reference Cy5-[…], class from inhibition at 5 and 15 μM, flow cytometry MFI; read-out: Binding affinity with HLA-B4601
Procedure: as §1

HLA-B5101 = HLA-B5101 (Homo sapiens, UniProt P01889, A329T/A93T/A95T/C349S/D138N/D201E/D98Y/E187L/E204Q/E69T/G107R/I218V/K202T/L105A/L119W/N104I/Q94N/R106L/R155S/R180L/S101N/S121T/S35A/S48A/V306I/V36M/Y195H/Y91F); test: Competitive peptide binding assay, CIR-B5101; conditions: HMy2.CIR-B5101 cells, reference Cy5-[…], class from inhibition at 5 and 15 μM, flow cytometry MFI; read-out: Binding affinity with HLA-B5101
Procedure: as §1

HLA-B0702 = molecular target: T1, HLA-B0702 (Homo sapiens, UniProt P01889); test: Competitive peptide binding assay, CIR-B0702; conditions: HMy2.CIR-B0702 cells, reference Cy5-[…], class from inhibition at 5 and 15 μM, flow cytometry MFI
T1 construct: expressed in transfected cells; host or cells: HMy2.CIR
Procedure: as §1

HLA-B5201 = HLA-B5201 (Homo sapiens, UniProt P01889, A329T/A93T/A95T/C349S/D138N/D201E/D98Y/E187L/E204Q/E69T/G107R/I218V/K202T/L105A/L119W/N104I/N87E/Q94N/R106L/R155S/R180L/S101N/S121T/S35A/S48A/V306I/V36M/Y195H/Y91S); test: Competitive peptide binding assay, CIR-B5201; conditions: HMy2.CIR-B5201 cells, reference Cy5-[…], class from inhibition at 5 and 15 μM, flow cytometry MFI; read-out: Binding affinity with HLA-B5201
Procedure: as §1

HLA-B1501 = HLA-B1501 (Homo sapiens, UniProt P01889, A329T/A93T/A95T/C349S/D201E/D98Y/E187L/E204Q/E69M/E70A/K202T/N87E/Q94N/R155S/R180W/S121R/S35A/S48A/V306I/V36M/Y140S/Y91S); test: Competitive peptide binding assay, CIR-B1501; conditions: HMy2.CIR-B1501 cells, reference Cy5-[…], class from inhibition at 5 and 15 μM, flow cytometry MFI; read-out: Binding affinity with HLA-B1501
Procedure: as §1

HLA-B1502 = HLA-B1502 (Homo sapiens, UniProt P01889, A329T/A93T/A95T/C349S/D201E/D98Y/E187L/E204Q/E69M/E70A/H137Y/K202T/L119I/Q94N/R155S/R180L/S121R/S35A/S48A/T118I/V306I/V36M/Y140S/Y91S); test: Competitive peptide binding assay, CIR-B1502; conditions: HMy2.CIR-B1502 cells, reference Cy5-[…], class from inhibition at 5 and 15 μM, flow cytometry MFI; read-out: Binding affinity with HLA-B1502
Procedure: as §1

HLA-B5801 = HLA-B5801 (Homo sapiens, UniProt P01889, A329T/C349S/D201E/D98Y/E176V/E187L/E204Q/E69T/G107R/I218V/I90N/K202T/L105A/L119I/N104I/N87E/Q89R/Q94S/R106L/R155S/R180L/R86G/S101N/S121R/S35A/S48A/T118I/V127L/V306I/V36M/Y140S/Y91M); test: Competitive peptide binding assay, CIR-B5801; conditions: HMy2.CIR-B5801 cells, reference Cy5-[…], class from inhibition at 5 and 15 μM, flow cytometry MFI; read-out: Binding affinity with HLA-B5801
Procedure: as §1

HLA-B4801 = HLA-B4801 (Homo sapiens, UniProt P01889, A269T/A93T/A95T/D138N/D98Y/E176V/N87E/Q94N/R180L/T167S/W171L/Y91S); test: Competitive peptide binding assay, CIR-B4801; conditions: HMy2.CIR-B4801 cells, reference Cy5-[…], class from inhibition at 5 and 15 μM, flow cytometry MFI; read-out: Binding affinity with HLA-B4801
Procedure: as §1

HLA-B1302 = HLA-B1302 (Homo sapiens, UniProt P01889, A65T/A93T/A95T/D138N/D201E/D98Y/E176V/E204Q/E69M/E70A/G107R/K202T/L105A/L119W/N104T/N87E/Q94N/R106L/R155S/R169L/R180L/S101N/S121T/S35A/S48T/V127L/V36M/Y140L/Y91S); test: Competitive peptide binding assay, CIR-B1302; conditions: HMy2.CIR-B1302 cells, reference Cy5-MMWYWGPSL, class from inhibition at 5 and 15 μM, flow cytometry MFI; read-out: Binding affinity with HLA-B1302
Procedure: as §1

Structure (SMILES) | pIC50 (HLA-C0702) | pIC50 (HLA-C0303) | pIC50 (HLA-C1502) | pIC50 (HLA-C0102) | pIC50 (HLA-C0801) | pIC50 (HLA-B5101) | pIC50 (HLA-B5201) | further results
C[C@H](NC(=O)[C@H](CO)NC(=O)[C@H](CO)NC(=O)[C@@H](N)Cc1ccc(O)cc1)C(=O)N[C@@H](CC(N)=O)C(=O)N[C@@H](CC(N)=O)C(=O)N[C@@H](CS)C(=O)N[C@H](C(=O)N[C@@H](Cc1ccccc1)C(=O)O)[C@@H](C)O [Epitope M64] (H-YSSANNCTF-OH; N-terminus and C-terminus assumed) | < 4.82 | < 4.82 | > 5.30 | < 4.82 | < 4.82 |  |  | pIC50 (HLA-C0302): 4.82 to 5.30
CC(C)C[C@H](NC(=O)[C@H](CCC(=O)O)NC(=O)[C@H](Cc1ccccc1)NC(=O)[C@H](CO)NC(=O)[C@H](CC(C)C)NC(=O)[C@@H](NC(=O)[C@@H](NC(=O)[C@@H](NC(=O)[C@H](CCCNC(=N)N)NC(=O)[C@@H](N)Cc1ccc(O)cc1)C(C)C)C(C)C)C(C)C)C(=O)O [Epitope M156] (H-YRVVVLSFEL-OH; N-terminus and C-terminus assumed) |  | < 4.82 |  | 4.82 to 5.30 |  |  |  | pIC50 (HLA-C1402): < 4.82; pIC50 (HLA-C0304): < 4.82; pIC50 (HLA-C1202): < 4.82
CC(C)[C@H](NC(=O)[C@@H](N)Cc1ccccc1)C(=O)N[C@@H](CO)C(=O)N[C@@H](CC(N)=O)C(=O)NCC(=O)N[C@H](C(=O)N[C@@H](Cc1c[nH]cn1)C(=O)N[C@@H](Cc1c[nH]c2ccccc12)C(=O)N[C@@H](Cc1ccccc1)C(=O)O)[C@@H](C)O [Epitope M68] (H-FVSNGTHWF-OH; N-terminus and C-terminus assumed) | < 4.82 |  | 4.82 to 5.30 |  | < 4.82 |  |  | pIC50 (HLA-C0701): < 4.82; pIC50 (HLA-C0602): < 4.82
CC[C@H](C)[C@H](NC(=O)CNC(=O)[C@H](CC(=O)O)NC(=O)[C@H](CCCCN)NC(=O)[C@H](CC(N)=O)NC(=O)[C@H](C)NC(=O)CN)C(=O)N[C@H](C(=O)N[C@@H](Cc1c[nH]c2ccccc12)C(=O)O)[C@@H](C)CC [Epitope Y301] (H-GANKDGIIW-OH; N-terminus and C-terminus assumed) |  |  |  |  |  | < 4.82 | < 4.82 | pIC50 (HLA-B4601): 4.82 to 5.30; pIC50 (HLA-B0702): 4.82 to 5.30; pIC50 (HLA-B1501): < 4.82; pIC50 (HLA-B1502): < 4.82; pIC50 (HLA-B5801): > 5.30; pIC50 (HLA-B4801): < 4.82; pIC50 (HLA-B1302): < 4.82
CC(C)C[C@H](NC(=O)[C@H](CCC(N)=O)NC(=O)[C@H](CC(=O)O)NC(=O)[C@H](C)NC(=O)[C@@H](N)Cc1c[nH]cn1)C(=O)N[C@H](C(=O)N1CCC[C@H]1C(=O)N[C@H](C(=O)N[C@@H](Cc1c[nH]c2ccccc12)C(=O)O)[C@@H](C)O)[C@@H](C)O [Epitope Y313] (H-HADQLTPTW-OH; N-terminus and C-terminus assumed) |  |  |  |  |  | < 4.82 | 4.82 to 5.30 | 
